Assay results: ChEMBL document CHEMBL1201862, “PubChem BioAssay data set” (2004)
Active and inactive are the calls of the source.

Key:
[1] = target: Intestinal-type alkaline phosphatase (Mus musculus, UniProt P24822); assay: PubChem AID 488875; format: functional
[2] = target: T1, Intestinal-type alkaline phosphatase (Homo sapiens, UniProt P09923); assay: human intestinal alkaline phosphatase activators, dose response, biochemical, luminescence, uHTS hits (AID 463120); format: functional
[3] = target: T1, Intestinal-type alkaline phosphatase; assay: human IAP activators, dose response, biochemical, luminescent, uHTS hits, set 2 (AID 488817); format: functional;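 also: potency of activators that raise enzyme activity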
[4] = target: T2, Alkaline phosphatase, tissue-nonspecific isozyme (Homo sapiens, UniProt P05186); assay: TNAP enzyme activators, dose response, selectivity assay for human IAP activator project, biochemical, TNAP isozyme, human IAP uHTS hits (AID 488886); format: functional;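 also: potency of compounds raising TNAP activity as a selectivity check on IAP activators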
T2 sequence (P05186 whole entry): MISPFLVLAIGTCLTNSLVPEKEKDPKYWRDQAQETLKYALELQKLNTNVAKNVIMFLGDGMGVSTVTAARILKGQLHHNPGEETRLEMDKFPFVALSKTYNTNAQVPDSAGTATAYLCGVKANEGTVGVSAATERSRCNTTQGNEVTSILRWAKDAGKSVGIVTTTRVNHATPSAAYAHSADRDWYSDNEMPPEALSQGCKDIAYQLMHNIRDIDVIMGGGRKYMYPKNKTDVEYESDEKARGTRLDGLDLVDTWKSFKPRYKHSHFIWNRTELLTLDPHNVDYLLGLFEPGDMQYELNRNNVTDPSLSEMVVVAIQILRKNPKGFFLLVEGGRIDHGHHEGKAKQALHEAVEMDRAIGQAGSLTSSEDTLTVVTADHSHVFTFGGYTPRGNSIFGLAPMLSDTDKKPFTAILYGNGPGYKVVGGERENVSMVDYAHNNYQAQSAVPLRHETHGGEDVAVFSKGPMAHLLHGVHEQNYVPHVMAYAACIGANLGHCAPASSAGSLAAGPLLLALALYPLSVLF

[5] = target: G-protein coupled receptor 55 (Homo sapiens, UniProt Q9Y2T6); assay: GPR55 antagonists, SAR follow-up, counter-screen for GPR35 antagonist project, imaging, image-based (AID 2397); format: functional
Cytochrome P450 3A4 = Cytochrome P450 3A4 (Homo sapiens, UniProt P08684);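 also: CYP3A4 tested as one member of a cytochrome P450 panel screen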
[6] = target: T3, RNA-binding protein pos-1 (Caenorhabditis elegans, UniProt G5EF15); assay: inhibitors of POS-1/mex-3 RNA binding, dose response, biochemical, fluorescence polarization (AID 1964);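 also: purified POS-1 fused to maltose binding protein made in E. coli; potency of compounds blocking POS-1 binding to fluorescent RNA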
T3 sequence (G5EF15 whole entry): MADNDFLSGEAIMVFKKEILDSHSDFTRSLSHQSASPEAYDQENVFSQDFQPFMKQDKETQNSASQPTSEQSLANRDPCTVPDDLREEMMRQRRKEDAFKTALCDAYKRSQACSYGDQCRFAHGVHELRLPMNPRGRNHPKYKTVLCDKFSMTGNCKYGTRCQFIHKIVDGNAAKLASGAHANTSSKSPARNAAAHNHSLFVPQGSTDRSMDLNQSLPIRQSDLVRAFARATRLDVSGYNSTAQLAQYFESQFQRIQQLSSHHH

[7] = target: T4, Zinc finger protein mex-5 (Caenorhabditis elegans, UniProt Q9XUB2); assay: MEX-5/TCR-2 RNA interaction inhibitors, dose response, biochemical, C. elegans, fluorescence polarization (AID 1960)
T4 sequence (Q9XUB2 whole entry): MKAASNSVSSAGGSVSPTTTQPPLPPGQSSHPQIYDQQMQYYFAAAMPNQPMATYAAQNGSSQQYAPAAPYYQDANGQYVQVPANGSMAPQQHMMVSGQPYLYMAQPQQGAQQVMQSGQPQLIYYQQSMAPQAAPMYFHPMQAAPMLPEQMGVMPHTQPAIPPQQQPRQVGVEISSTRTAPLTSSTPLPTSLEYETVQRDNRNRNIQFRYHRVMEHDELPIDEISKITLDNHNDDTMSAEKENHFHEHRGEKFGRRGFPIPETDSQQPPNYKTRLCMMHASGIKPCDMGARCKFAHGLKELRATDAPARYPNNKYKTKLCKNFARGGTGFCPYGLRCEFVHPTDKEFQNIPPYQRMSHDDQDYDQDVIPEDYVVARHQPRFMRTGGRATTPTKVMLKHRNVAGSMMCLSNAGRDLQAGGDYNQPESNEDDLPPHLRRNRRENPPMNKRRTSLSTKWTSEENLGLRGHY

[8] = target: UDP-galactopyranose mutase (Mycobacterium tuberculosis, UniProt P9WIQ1); assay: Inhibitors of Mycobacterium tuberculosis UDP-galactopyranose mutase (UGM) enzyme Measured in Biochemical System Using Plate Reader - 2105-02_Inhibitor_Dose_CherryPick_Activity. [Related pubchem assays (depositor defined):AID504439]
[9] = target: Protein phosphatase methylesterase 1 (Homo sapiens, UniProt Q9Y570); assay: PME-1 inhibitors by competitive ABPP, late-stage follow-up, gel-based ABPP, IC50, set 1 (AID 463130); format: functional
[10] = target: DNA damage-inducible transcript 3 protein (Mus musculus, UniProt P35639); format: functional, Cricetulus griseus
X-box-binding protein 1 = target: T5, X-box-binding protein 1 (Homo sapiens, UniProt P17861); format: functional, Cricetulus griseus;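 also: confirmatory dose-response counter-screen serving a CHOP assay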
T5 sequence (P17861 whole entry): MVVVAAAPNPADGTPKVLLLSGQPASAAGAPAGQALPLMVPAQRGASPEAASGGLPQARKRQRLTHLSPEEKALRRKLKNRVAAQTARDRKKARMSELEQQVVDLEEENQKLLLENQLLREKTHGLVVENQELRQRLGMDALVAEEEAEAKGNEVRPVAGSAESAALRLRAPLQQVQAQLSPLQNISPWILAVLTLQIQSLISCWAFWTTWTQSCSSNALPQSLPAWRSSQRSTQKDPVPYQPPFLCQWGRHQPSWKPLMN

[11] = target: T6, Tyrosine-protein phosphatase non-receptor type 7 (Homo sapiens, UniProt P35236); format: functional
T6 sequence (P35236 whole entry): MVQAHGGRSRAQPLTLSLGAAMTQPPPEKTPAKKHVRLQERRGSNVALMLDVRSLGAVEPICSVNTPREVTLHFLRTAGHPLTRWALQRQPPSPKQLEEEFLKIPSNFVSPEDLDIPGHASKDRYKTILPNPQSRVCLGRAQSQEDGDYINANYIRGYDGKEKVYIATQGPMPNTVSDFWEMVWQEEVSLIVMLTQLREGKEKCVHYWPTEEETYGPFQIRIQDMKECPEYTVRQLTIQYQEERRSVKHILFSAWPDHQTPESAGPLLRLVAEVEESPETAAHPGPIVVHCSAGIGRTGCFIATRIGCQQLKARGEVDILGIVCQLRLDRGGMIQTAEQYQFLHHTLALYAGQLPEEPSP

[12] = target: Glyceraldehyde-3-phosphate dehydrogenase (Homo sapiens, UniProt P04406)
[13] = target: Heat shock cognate 71 kDa protein (Homo sapiens, UniProt P11142); assay: In Vitro Hsc70 Dose Response Fluorescence Polarization Assay. [Related pubchem assays: 1072 ]
[14] = target: Heat shock 70 kDa protein 1A (Homo sapiens, UniProt P0DMV8); assay: Hsp70 inhibitors, SAR follow-up, biochemical, fluorescence polarization (AID 1072)
[15] = target: T7, Dual specificity protein phosphatase 6 (Rattus norvegicus, UniProt Q64346)
[16] = target: T7, Dual specificity protein phosphatase 6; format: functional

T7 sequence (Q64346 whole entry): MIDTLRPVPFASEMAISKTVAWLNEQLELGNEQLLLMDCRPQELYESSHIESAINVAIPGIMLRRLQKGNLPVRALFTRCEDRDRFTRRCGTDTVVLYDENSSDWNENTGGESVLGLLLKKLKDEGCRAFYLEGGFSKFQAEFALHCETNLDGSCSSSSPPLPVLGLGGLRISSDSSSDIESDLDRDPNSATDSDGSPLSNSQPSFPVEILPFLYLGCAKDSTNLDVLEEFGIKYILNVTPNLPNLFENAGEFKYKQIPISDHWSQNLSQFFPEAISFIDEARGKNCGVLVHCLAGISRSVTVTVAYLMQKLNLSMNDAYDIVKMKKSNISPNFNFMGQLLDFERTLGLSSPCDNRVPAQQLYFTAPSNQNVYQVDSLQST
T1 sequence (P09923 whole entry): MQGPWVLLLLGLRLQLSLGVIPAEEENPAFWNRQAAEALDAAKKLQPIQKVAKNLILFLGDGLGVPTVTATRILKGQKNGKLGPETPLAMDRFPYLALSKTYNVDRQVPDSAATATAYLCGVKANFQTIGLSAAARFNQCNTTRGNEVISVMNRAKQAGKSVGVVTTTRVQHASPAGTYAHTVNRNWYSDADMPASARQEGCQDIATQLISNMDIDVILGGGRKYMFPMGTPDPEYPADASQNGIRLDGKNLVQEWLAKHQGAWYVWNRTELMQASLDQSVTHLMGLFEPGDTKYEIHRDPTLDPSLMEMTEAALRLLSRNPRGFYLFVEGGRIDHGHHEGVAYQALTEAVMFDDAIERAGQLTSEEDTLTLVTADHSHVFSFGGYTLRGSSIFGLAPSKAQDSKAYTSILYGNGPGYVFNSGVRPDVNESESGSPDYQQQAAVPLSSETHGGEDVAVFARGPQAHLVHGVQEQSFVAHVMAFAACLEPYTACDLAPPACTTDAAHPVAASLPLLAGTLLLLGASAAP
Protein phosphatase methylesterase 1, sequence (Q9Y570 whole entry): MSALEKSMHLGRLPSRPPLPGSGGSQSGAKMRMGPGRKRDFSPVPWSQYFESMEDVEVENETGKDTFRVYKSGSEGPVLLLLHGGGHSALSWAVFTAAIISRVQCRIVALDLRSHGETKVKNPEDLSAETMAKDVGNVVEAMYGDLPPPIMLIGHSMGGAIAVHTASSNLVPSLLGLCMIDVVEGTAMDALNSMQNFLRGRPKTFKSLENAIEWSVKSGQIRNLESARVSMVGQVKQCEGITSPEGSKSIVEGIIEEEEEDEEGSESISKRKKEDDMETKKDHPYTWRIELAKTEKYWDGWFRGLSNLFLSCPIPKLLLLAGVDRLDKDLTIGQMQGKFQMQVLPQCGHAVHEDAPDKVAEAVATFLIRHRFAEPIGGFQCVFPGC
Heat shock cognate 71 kDa protein, sequence (P11142 whole entry): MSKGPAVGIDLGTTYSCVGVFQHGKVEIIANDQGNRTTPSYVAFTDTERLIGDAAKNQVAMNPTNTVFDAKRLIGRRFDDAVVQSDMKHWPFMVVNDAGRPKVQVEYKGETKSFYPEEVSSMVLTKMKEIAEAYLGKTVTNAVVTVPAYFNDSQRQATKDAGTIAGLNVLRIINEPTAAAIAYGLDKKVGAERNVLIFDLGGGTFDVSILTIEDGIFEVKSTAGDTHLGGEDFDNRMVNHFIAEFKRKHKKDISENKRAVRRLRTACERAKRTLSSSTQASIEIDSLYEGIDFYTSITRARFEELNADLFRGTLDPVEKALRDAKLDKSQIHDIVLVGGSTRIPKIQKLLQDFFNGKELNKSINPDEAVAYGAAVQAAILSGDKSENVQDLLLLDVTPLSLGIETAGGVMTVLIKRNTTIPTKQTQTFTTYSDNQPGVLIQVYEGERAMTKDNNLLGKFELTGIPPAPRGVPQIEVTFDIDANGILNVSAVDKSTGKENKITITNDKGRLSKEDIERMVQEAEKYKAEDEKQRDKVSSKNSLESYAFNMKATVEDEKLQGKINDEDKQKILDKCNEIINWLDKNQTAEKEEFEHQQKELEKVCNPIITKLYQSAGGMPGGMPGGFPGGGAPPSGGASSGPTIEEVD
Glyceraldehyde-3-phosphate dehydrogenase, sequence (P04406 whole entry): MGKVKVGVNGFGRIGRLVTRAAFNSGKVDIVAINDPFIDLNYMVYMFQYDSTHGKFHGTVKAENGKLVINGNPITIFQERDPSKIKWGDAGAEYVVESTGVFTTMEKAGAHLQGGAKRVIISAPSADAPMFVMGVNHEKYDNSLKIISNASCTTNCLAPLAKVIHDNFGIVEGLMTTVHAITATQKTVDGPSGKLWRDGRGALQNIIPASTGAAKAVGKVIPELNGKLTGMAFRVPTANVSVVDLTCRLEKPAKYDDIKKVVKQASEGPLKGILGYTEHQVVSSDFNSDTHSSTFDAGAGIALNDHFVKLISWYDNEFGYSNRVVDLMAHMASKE
Cytochrome P450 3A4, sequence (P08684 whole entry, the tested form may be a part): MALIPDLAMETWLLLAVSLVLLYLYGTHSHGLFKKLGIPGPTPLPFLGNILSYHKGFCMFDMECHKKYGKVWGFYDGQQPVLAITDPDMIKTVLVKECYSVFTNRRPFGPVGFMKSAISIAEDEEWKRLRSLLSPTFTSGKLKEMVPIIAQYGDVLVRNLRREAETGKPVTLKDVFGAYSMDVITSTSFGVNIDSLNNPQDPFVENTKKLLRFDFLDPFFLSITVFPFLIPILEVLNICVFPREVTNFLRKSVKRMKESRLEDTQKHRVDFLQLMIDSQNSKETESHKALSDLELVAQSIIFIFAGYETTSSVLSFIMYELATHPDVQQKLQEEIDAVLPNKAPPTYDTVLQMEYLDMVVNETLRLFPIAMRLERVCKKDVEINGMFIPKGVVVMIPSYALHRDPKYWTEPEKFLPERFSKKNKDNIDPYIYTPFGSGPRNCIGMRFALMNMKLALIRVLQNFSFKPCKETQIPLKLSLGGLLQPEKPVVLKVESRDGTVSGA
Heat shock 70 kDa protein 1A, sequence (P0DMV8 whole entry): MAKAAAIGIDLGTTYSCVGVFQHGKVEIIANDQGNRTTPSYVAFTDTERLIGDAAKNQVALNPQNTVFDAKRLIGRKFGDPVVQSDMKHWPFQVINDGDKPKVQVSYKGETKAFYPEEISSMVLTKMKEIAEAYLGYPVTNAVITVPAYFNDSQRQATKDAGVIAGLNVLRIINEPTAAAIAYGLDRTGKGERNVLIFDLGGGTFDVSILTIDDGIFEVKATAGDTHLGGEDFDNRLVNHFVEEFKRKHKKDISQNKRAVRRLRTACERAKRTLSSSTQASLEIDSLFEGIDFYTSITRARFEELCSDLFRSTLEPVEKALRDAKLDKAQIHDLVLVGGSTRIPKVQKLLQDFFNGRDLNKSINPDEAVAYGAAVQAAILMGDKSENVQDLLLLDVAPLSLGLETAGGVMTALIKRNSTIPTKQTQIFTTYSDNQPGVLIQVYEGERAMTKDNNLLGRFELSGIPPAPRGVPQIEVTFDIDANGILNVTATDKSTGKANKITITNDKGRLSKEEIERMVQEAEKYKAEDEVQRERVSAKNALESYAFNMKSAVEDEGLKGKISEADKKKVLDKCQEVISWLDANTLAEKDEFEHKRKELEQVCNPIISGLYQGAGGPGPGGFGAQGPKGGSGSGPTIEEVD
G-protein coupled receptor 55, sequence (Q9Y2T6 whole entry): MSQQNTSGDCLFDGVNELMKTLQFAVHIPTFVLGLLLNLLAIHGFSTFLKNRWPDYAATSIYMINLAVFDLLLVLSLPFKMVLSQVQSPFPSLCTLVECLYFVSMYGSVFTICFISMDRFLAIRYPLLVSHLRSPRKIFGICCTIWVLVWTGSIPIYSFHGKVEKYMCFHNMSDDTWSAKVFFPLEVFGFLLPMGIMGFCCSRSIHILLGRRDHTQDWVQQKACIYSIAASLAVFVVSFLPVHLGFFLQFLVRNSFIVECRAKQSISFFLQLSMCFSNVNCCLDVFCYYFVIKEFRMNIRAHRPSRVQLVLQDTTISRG
DNA damage-inducible transcript 3 protein, sequence (P35639 whole entry): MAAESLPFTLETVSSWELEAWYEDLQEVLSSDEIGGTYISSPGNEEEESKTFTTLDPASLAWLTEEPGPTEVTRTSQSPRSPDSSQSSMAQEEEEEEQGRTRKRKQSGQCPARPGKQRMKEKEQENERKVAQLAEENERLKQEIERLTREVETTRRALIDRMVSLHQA
Intestinal-type alkaline phosphatase (Mus musculus, UniProt P24822), sequence (P24822 whole entry): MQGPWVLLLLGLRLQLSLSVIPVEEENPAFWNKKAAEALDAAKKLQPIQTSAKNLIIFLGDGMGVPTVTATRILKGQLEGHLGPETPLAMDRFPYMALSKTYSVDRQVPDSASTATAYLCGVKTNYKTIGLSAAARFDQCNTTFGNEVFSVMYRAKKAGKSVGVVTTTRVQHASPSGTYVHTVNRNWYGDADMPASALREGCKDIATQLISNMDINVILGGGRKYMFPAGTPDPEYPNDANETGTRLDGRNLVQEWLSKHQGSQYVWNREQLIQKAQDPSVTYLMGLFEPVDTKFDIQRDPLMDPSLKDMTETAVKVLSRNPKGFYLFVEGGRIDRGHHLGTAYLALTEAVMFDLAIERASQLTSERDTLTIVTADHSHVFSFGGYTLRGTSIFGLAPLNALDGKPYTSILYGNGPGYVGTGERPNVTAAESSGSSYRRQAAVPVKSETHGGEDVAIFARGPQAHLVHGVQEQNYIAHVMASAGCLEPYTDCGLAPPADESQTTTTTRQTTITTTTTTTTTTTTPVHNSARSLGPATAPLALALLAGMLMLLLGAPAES
UDP-galactopyranose mutase, sequence (P9WIQ1 whole entry): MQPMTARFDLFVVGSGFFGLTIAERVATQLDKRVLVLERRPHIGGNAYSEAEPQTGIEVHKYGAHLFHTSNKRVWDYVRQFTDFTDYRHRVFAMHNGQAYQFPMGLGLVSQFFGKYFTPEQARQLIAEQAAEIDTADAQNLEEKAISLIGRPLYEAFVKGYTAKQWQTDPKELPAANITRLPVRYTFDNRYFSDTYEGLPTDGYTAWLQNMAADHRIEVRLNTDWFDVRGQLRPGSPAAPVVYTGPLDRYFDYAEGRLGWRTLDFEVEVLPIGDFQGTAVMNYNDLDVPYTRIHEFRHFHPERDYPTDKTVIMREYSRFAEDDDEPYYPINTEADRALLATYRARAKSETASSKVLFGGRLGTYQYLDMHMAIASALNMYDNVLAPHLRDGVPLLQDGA

**Q.** Which results are given for `CCOc1cccc(-c2nc(C(N)=O)c3nc(O)n(-c4cccc(Cl)c4)c3n2)c1O`?
**A.** EC50 [1]: > 100 µM (inactive); EC50 [2]: 4.9 µM (active); EC50 [3]: 3.66 µM (active); EC50 [4]: 2.41 µM (active)

**Q.** Which results are given for `COc1ccc(-c2nnc(-c3cccnc3)o2)cc1`?
**A.** IC50 [5]: > 32 µM (inactive); AC50 (Cytochrome P450 3A4): 1.58 µM (inconclusive)

**Q.** Which results are given for `NC(=O)Cn1cc(C=C2C(=O)NC(=O)NC2=O)c2ccccc21`?
**A.** EC50 [6]: > 300 µM (inconclusive); EC50 [7]: > 300 µM (inconclusive); AC50 [8]: 82.3 µM (active)

**Q.** Which IC50 [9] does the source give for `COC(=O)N1C(=O)[C@@](CC(C)C)(c2ccccc2)N1C(=O)OC` here?
**A.** 0.227 µM (active)

**Q.** With `C=CCO/C(O)=C1\C(C)=NC(SCC(=O)Nc2ccccc2)=C(C#N)C1c1ccco1` (stereo not drawn) as the compound, how does the “Absolute IC50 (CHOP)” value [10] read?
**A.** 10 µM

**Q.** What about the “Absolute IC50 (XBP1)” value (X-box-binding protein 1) of the same compound?
**A.** 10 µM

**Q.** How did the IC50 [11] turn out when `Cc1ccc(C)c2c1NC(C(=O)O)C1CC=CC21` (stereo not drawn) was run?
**A.** > 100 µM (not active)

**Q.** What about the IC50 [12] of the same compound?
**A.** > 100 µM (not active)

**Q.** What about the IC50 [13] of the same compound?
**A.** > 100 µM (not active)

**Q.** And the IC50 [14]?
**A.** > 100 µM (not active)

**Q.** And the IC50 [15]?
**A.** > 100 µM (inactive)

**Q.** And the IC50 [16]?
**A.** > 100 µM (inactive)
